Source: patent US3935309A, “Synergistic combinations of phosphonomycin and bacteriostatic agents” (Merck & Co., Inc., priority 1974, dated 1976)
Like-named read-outs stand apart in the source and are kept apart here.

Assays:
Staphylococcus aureus [1] = test: criss-cross MIC method in nutrient broth (Example 2); format: cell-based; conditions: 37°C, 24 hours, two experiments on different days
Experimental: This method involved the simultaneous determination of the MIC (minimum inhibitory concentration) of each member of a pair of antibiotics and of combinations of the two in nutrient broth (NB) containing 0.2% yeast extract (YE). Serial two-fold dilutions were made throughout the experiment, and the starting inoculum consisted of approximately 25,000 cells/ml. of Staphylococcus aureus. Incubation was at 37°C. for 24 hours. Identical experiments were performed on two different days.

Escherichia coli 2017 = test: Combined antibiotic therapy of Escherichia coli infection in mice (Example 5); format: in vivo, mice infected with Escherichia coli 2017; set-up: ED50: unit not given beside the values; conditions: for ED50 / % of effective dose: first test
Description: (§1) For example, using Escherichia coli 2017 as the infecting agent, sodium phosphonomycin was titrated alone and in the presence 5 and also in the presence of 0.5γtetracycline, while tetracycline was titrated alone and in the presence of 50γ, and also in the presence of 5γof sodium phosphonomycin. The two drugs were given by the subcutaneous route at separate sites on the ventral surface of the mouse. Such therapy was given only at the time of infection for the Escherichia coli and Pseudomonas aeruginosa tests but both at the time of infection and 6 hours later for all other tests. Infection was given intraperitoneally using broth suspensions of the test organism.

pathogenic bacteria = test: in vitro combination tests with various pathogens (general description); format: cell-based; conditions: for potentiation when combined with phosphonomycin: various strains of pathogenic bacteria
Description: Other experimental results have shown that novobiocin, chlortetracycline and sulfisoxazole are potentiated when combined with phosphonomycin and tested with various strains of pathogenic bacteria.

Streptococcus faecalis = test: MIC by two-fold serial broth dilution, alone and in combination (Example 1); format: cell-based; conditions: for MIC: Enterococcus faecalis, read-out: MIC of 2nd Subst.
Experimental: (§2) The MIC (minimum inhibitory concentration) of phosphonomycin and each of the other antibiotics by itself was determined before the combination synergy experiment was begun, as follows: 2 ml. of a double strength solution in sterile distilled water of the highest strength to be tested (usually 1000γ) was added to a tube of double strength nutrient broth (NB) and mixed thoroughly. Two-fold serial dilutions were then made by transferring 2 ml. to the next tube (1 × NB) and so on for approximately 12 tubes. The tubes were inoculated with one drop each of a 1:50 dilution of a culture adjusted to a Lumetron 60 reading in NB + 0.2% yeast extract so as to provide a concentration of cells of approximately 25,000/ml. The tubes were then incubated at 37°C. and examined for growth at 24, 48 and 72 hours.
(§3) In the combination experiment, the MIC value obtained as described above was used as approximately the midpoint of the range to be tested for each of the two antibiotics of the combination. In a manner similar to the above, two-fold dilutions of the first substance in the combination were made except that 1.8 ml. volumes were used and a 2.2 × strength solution of both the antibiotic and the NB were made. The second antibiotic of the combination was added to duplicate rows of serial dilutions of the first substance as follows: 0.2 ml. in NB of a [formula] and a [formula] respectively, of the second substance was added to each tube in a row of serial dilutions of the first antibiotic. The final concentration that resulted enabled the determination of the effect of both MIC/4 and MIC/8 of each substance in the presence of from approximately 32 MIC to [formula] of the other. Inocula were added as in the initial single MIC experiment.

Proteus vulgaris = test: as above; format: cell-based; conditions: for MIC: Proteus vulgaris, read-out: MIC of 2nd Subst.
Experimental: as §2, §3

Staphylococcus aureus [2] = test: as above; format: cell-based; conditions: for MIC: Staphylococcus aureus, read-out: MIC of 2nd Subst.
Experimental: as §2, §3

Pseudomonas aeruginosa = test: as above; format: cell-based; conditions: for MIC: Pseudomonas aeruginosa, read-out: MIC of 2nd Subst.
Experimental: as §2, §3

[3] = tested on: Pseudomonas aeruginosa 3210; test: Combined antibiotic therapy of experimental infection in mice (Example 5); format: in vivo, mice infected with Pseudomonas aeruginosa 3210; conditions: for s.c. ED50: 10 LD50
Description: as §1

[4] = tested on: Klebsiella pneumoniae "B"; test: as above; format: in vivo, mice infected with Klebsiella pneumoniae "B"; conditions: for s.c. ED50: 7 LD50
Description: as §1

Pseudomonas stutzeri = test: MIC by two-fold serial broth dilution, alone and in combination (Example 1); format: cell-based
Experimental: as §2, §3

Klebsiella pneumoniae = test: as above; format: cell-based
Experimental: as §2, §3

[5] = tested on: Streptococcus pyogenes 3009; test: Combined antibiotic therapy of experimental infection in mice (Example 5); format: in vivo, mice infected with Streptococcus pyogenes 3009; conditions: 6 LD50
Description: as §1

[6] = chloramphenicol repeat test, 7 LD50, chloramphenicol titrated, phosphonomycin constant 5
[7] = chloramphenicol repeat test, 7 LD50, chloramphenicol titrated, phosphonomycin constant 50
[8] = chloramphenicol test 1, 9 LD50, chloramphenicol titrated, phosphonomycin constant 10
[9] = chloramphenicol test 1, 9 LD50, chloramphenicol titrated, phosphonomycin constant 100
[10] = in presence of MIC/2 instead of ≤ MIC/4
[11] = novobiocin itself, at the levels tested
[12] = alone, therapy at 0 and 6 hours, phosphonomycin as sodium salt
[13] = tetracycline titrated, phosphonomycin constant 500
[14] = tetracycline titrated, phosphonomycin constant 1000
[15] = combination of 54% tetracycline with .5% sodium phosphonomycin
[16] = phosphonomycin titrated in the presence of 0.5γ tetracycline
[17] = tetracycline titrated in the presence of 50γ sodium phosphonomycin
[18] = tetracycline repeat test, 7 LD50, tetracycline titrated, phosphonomycin constant 0.5
[19] = tetracycline repeat test, 7 LD50, tetracycline titrated, phosphonomycin constant 50
[20] = tetracycline test 1, 9 LD50, alone
[21] = tetracycline test 1, 9 LD50, tetracycline titrated, phosphonomycin constant 5
[22] = tetracycline test 1, 9 LD50, tetracycline titrated, phosphonomycin constant 50

Compound: O=C(N[C@H](CO)[C@H](O)c1ccc([N+](=O)[O-])cc1)C(Cl)Cl [Chloramphenicol]
- MIC (Staphylococcus aureus [1]; Staphylococcus aureus, 24 h, read-out: CLM MIC, alone): 7.8 µg/mL
- CLM MIC (Staphylococcus aureus [1]; alone, listed as CLM): 3.9 µg/mL
- % ED50 (Escherichia coli 2017; chloramphenicol repeat test, 7 LD50, alone): 100%
- s.c. ED50 (Escherichia coli 2017; chloramphenicol repeat test, 7 LD50, alone, single dose at 0 hour, phosphonomycin as sodium salt): 120 µg
- % ED50 (Escherichia coli 2017; [6]): 39%
- s.c. ED50 (Escherichia coli 2017; [6]): 47 µg
- % ED50 (Escherichia coli 2017; [7]): 17%
- s.c. ED50 (Escherichia coli 2017; [7]): 20 µg
- % ED50 (Escherichia coli 2017; chloramphenicol repeat test, 7 LD50, phosphonomycin titrated, chloramphenicol constant 5): 4%
- % ED50 (Escherichia coli 2017; chloramphenicol repeat test, 7 LD50, phosphonomycin titrated, chloramphenicol constant 50): 42%
- % ED50 (Escherichia coli 2017; chloramphenicol test 1, 9 LD50, alone): 100%
- % ED50 (Escherichia coli 2017; [8]): 55%
- s.c. ED50 (Escherichia coli 2017; [8]): 250 µg
- % ED50 (Escherichia coli 2017; [9]): 24%
- s.c. ED50 (Escherichia coli 2017; [9]): 107 µg
- % ED50 (Escherichia coli 2017; chloramphenicol test 1, 9 LD50, phosphonomycin titrated, chloramphenicol constant 3): 1%
- % ED50 (Escherichia coli 2017; chloramphenicol test 1, 9 LD50, phosphonomycin titrated, chloramphenicol constant 30): 7%

Compound: CN(C)[C@@H]1C(O)=C(C(N)=O)C(=O)[C@@]2(O)C(O)=C3C(=O)c4c(O)ccc(Cl)c4[C@@](C)(O)[C@H]3C[C@@H]12 [Chlortetracycline]
- potentiation when combined with phosphonomycin (pathogenic bacteria): potentiated
- MIC of 2nd Subst. in presence of ≤ MIC/4 of phosphonomycin (Streptococcus faecalis): 0.5
- MIC (Streptococcus faecalis): 0.5 µg/mL
- MIC of 2nd Subst. in presence of ≤ MIC/4 of phosphonomycin (Proteus vulgaris): 0.25
- MIC (Proteus vulgaris): 2 µg/mL

Compound: CC[C@H]1OC(=O)[C@H](C)[C@@H](O[C@H]2C[C@@](C)(OC)[C@@H](O)[C@H](C)O2)[C@H](C)[C@@H](O[C@@H]2O[C@H](C)C[C@H](N(C)C)[C@H]2O)[C@](C)(O)C[C@@H](C)C(=O)[C@H](C)[C@@H](O)[C@]1(C)O [Erythromycin]
- MIC of 2nd Subst. in presence of ≤ MIC/4 of phosphonomycin (Streptococcus faecalis): 16
- MIC (Streptococcus faecalis): 32 µg/mL
- MIC (Proteus vulgaris): 1000 µg/mL
- MIC of 2nd Subst. in presence of phosphonomycin (Proteus vulgaris; [10]): 500 µg/mL
- MIC of 2nd Subst. in presence of ≤ MIC/4 of phosphonomycin (Staphylococcus aureus [2]): 2
- MIC (Staphylococcus aureus [2]): 8 µg/mL
- MIC (Pseudomonas aeruginosa): > 16000 µg/mL
- MIC of 2nd Subst. in presence of ≤ MIC/4 of phosphonomycin (Pseudomonas aeruginosa; resistant growth present): 2000

Compound: CO[C@@H]1[C@@H](OC(N)=O)[C@@H](O)[C@H](Oc2ccc3c(O)c(NC(=O)c4ccc(O)c(CC=C(C)C)c4)c(=O)oc3c2C)OC1(C)C [Novobiocin]
- control of pathogens by combination with phosphonomycin (pathogenic bacteria): effective in controlling pathogens which cannot be effectively controlled by either antibiotic separately
- potentiation when combined with phosphonomycin (pathogenic bacteria): potentiated
- s.c. ED50 ([3]; alone, therapy at 0 hour only, phosphonomycin as sodium salt): > 10000 µg
- s.c. ED50 ([3]; novobiocin titrated, phosphonomycin > 20): > 10000 µg
- s.c. ED50 ([3]; novobiocin with phosphonomycin >200): > 10000 µg
- protection of mice [3, 11]: did not protect
- s.c. ED50 [4, 12]: > 2500 µg
- s.c. ED50 ([4]; novobiocin titrated, phosphonomycin > 100): > 2500 µg
- s.c. ED50 ([4]; novobiocin with phosphonomycin > 10): > 2500 µg
- protection of mice [4, 11]: did not protect
- MIC of 2nd Subst. in presence of ≤ MIC/4 of phosphonomycin (Pseudomonas stutzeri): 8
- MIC (Pseudomonas stutzeri; Stutzerimonas stutzeri, alone, read-out: MIC of 2nd Subst.): 32 µg/mL
- MIC of 2nd Subst. in presence of ≤ MIC/4 of phosphonomycin (Streptococcus faecalis): 4
- MIC (Streptococcus faecalis): 4 µg/mL
- MIC of 2nd Subst. in presence of ≤ MIC/4 of phosphonomycin (Proteus vulgaris): 3.9
- MIC (Proteus vulgaris): 32 µg/mL
- MIC of 2nd Subst. in presence of ≤ MIC/4 of phosphonomycin (Klebsiella pneumoniae): < 2
- MIC (Klebsiella pneumoniae; Klebsiella pneumoniae, alone, read-out: MIC of 2nd Subst.): 32 µg/mL
- MIC (Staphylococcus aureus [2]): 0.06 µg/mL
- MIC of 2nd Subst. in presence of phosphonomycin (Staphylococcus aureus [2]; [10]): 0.015 µg/mL
- MIC of 2nd Subst. in presence of ≤ MIC/4 of phosphonomycin (Pseudomonas aeruginosa): 62.5
- MIC (Pseudomonas aeruginosa): 250 µg/mL

Compound: CN(C)C1C(=O)C(C(N)=O)=C(O)C2(O)C(=O)C3=C(O)c4c(O)cccc4C(C)(O)C3CC12 (stereo not drawn) [Tetracycline]
- % ED50 ([5]; alone): 100%
- s.c. ED50 [5, 12]: 55 µg
- % ED50 [5, 13]: 36%
- s.c. ED50 [5, 13]: 35 µg
- % ED50 [5, 14]: 33%
- s.c. ED50 [5, 14]: 18 µg
- ED50 (Escherichia coli 2017; alone): 50 γ
- % of effective dose (Escherichia coli 2017; [15]): 54%
- % of effective dose (Escherichia coli 2017; [16]): 1%
- % of effective dose (Escherichia coli 2017; [17]): 25%
- ED50 (Escherichia coli 2017; titrated in the presence of 50γ sodium phosphonomycin): 13 γ
- % ED50 (Escherichia coli 2017; tetracycline repeat test, 7 LD50, alone): 100%
- s.c. ED50 (Escherichia coli 2017; tetracycline repeat test, 7 LD50, alone, single dose at 0 hour, phosphonomycin as sodium salt): 31 µg
- % ED50 (Escherichia coli 2017; tetracycline repeat test, 7 LD50, phosphonomycin titrated, tetracycline constant 1): 3%
- % ED50 (Escherichia coli 2017; tetracycline repeat test, 7 LD50, phosphonomycin titrated, tetracycline constant 10): 32%
- % ED50 (Escherichia coli 2017; [18]): 23%
- s.c. ED50 (Escherichia coli 2017; [18]): 7 µg
- % ED50 (Escherichia coli 2017; [19]): 100%
- s.c. ED50 (Escherichia coli 2017; [19]): 31 µg
- % ED50 (Escherichia coli 2017; [20]): 100%
- % ED50, Combined % (Escherichia coli 2017; [20]): 100%
- s.c. ED50 (Escherichia coli 2017; tetracycline test 1, 9 LD50, alone, single dose at 0 hour, phosphonomycin as sodium salt): 50 µg
- % ED50 (Escherichia coli 2017; tetracycline test 1, 9 LD50, phosphonomycin titrated, tetracycline constant 0.5): 1%
- % ED50 (Escherichia coli 2017; tetracycline test 1, 9 LD50, phosphonomycin titrated, tetracycline constant 5): 10%
- % ED50 (Escherichia coli 2017; [21]): 54%
- s.c. ED50 (Escherichia coli 2017; [21]): 27 µg
- % ED50 (Escherichia coli 2017; [22]): 25%
- s.c. ED50 (Escherichia coli 2017; [22]): 13 µg
- enhancement of tetracycline activity (Escherichia coli 2017; two tests, constant quantity of sodium phosphonomycin): enhanced

Compound: C[C@@H]1O[C@@H]1P(=O)(O)O [sodium phosphonomycin]
- interaction of combination ([4]; 1 mg. of novobiocin included in the dose): could be considered as potentiation
- sodium phosphonomycin required to protect the mice ([4]; 1 mg. of novobiocin included in the dose vs its absence): less sodium phosphonomycin was required to protect the mice
- ED50 (Escherichia coli 2017; alone): 1000 γ
- % of effective dose (Escherichia coli 2017; [15]): .5%
- % of effective dose (Escherichia coli 2017; [16]): 100%
- % of effective dose (Escherichia coli 2017; [17]): 5%
- ED50 (Escherichia coli 2017; titrated in the presence of 0.5γ tetracycline): 1000 γ
- enhancement of sodium phosphonomycin activity (Escherichia coli 2017; two tests, constant quantity of tetracycline): In neither test did a constant quantity of tetracycline enhance sodium phosphonomycin activity

Compound: Cc1noc(NS(=O)(=O)c2ccc(N)cc2)c1C [sulfisoxazole]
- potentiation when combined with phosphonomycin (pathogenic bacteria): potentiated
